{
  "source": "patent US12527874B2",
  "about": "“Bioorthogonal compositions” (TAMBO, INC., priority 2015, dated 2026)",
  "key": {"[1]": {"conditions": "3 days after the last treatment, after injection of HMT", "protocol": "Samples were collected 3 days after the last treatment. Data are means±SD (n=2).\nReticulocyte measurements. Two mice per condition were anesthetized with isoflurane anesthesia 3 days after the last treatment during the nadir of reticulocyte decrease. (27) Blood was collected by cardiac puncture in a syringe containing lithium heparin to prevent coagulation. RBC and reticulocyte concentrations were determined the same day using a DEXX ProCyte Dx Hematology Analyzer (IDEXX Laboratories, Inc.)."}, "[2]": {"test_system": "HT1080 cells", "test": "MTT cytotoxicity assay", "conditions": "read-out: 50% growth inhibitory concentration (IC50), 48 h treatment followed by additional 48 h in DMEM", "protocol": "Cells were treated with the drug or the pro-drug for 48 h, followed by additional 48 h in DMEM, prior to measuring their viability.\nHT1080 cells were purchased from ATCC (cat. #CCL-121), and propagated in Dulbecco's modified Eagle's medium (DMEM; Meditech, Inc. Corning, Manassas, VA) containing 5% fetal bovine serum (FBS; HyClone, Logan Utah), supplemented with 100 U/ml penicillin, and 100 μg/ml streptomycin (Life Tech Corp., Grand Island, NY) at 37° C. in a 5% CO2 incubator.\nDay one: using 96-well format, plated˜100 cells/well in 100 μL DMEM and incubated for 24 h. […] Day four: the medium was replaced with 100 μL of fresh DMEM and the cells were incubated for 48 h. Day six: DMEM was removed and the cells were incubated with 100 μL of MTT solution (0.6 mg/mL in DMEM) per well for 4 h at 37° C. The MTT solution was then replaced with 100 μL of DMSO containing 4% aqueous ammonia per well to dissolve the purple formazan crystals. After 30 min, the absorbance of each well at 550 nm was recorded using BioTek Synergy HT multi detection microplate reader. Results were averaged from three independent arrays of triplicate experiments."}, "[3]": {"conditions": "xenograft mice, HMT injected"}, "[4]": {"test_system": "human soft tissue sarcoma (HT-1080) xenografts", "test": "Inhibition of HT1080 xenograft growth (soft tissue sarcoma model, HMT injected near tumor)", "format": "in vivo, mice", "method": "HMT was injected near the palpable soft tissue sarcoma tumors after 18 days when their size reached an average of 195 mm3 (range, 90-500 mm3). The mice were separated into two cohorts: (i) 3 intravenous doses of 14 μmoles/kg of doxorubicin every 4 days (maximum tolerable dose), (27, 49) or (ii) daily doses of 14 μmoles/kg of doxorubicin for 10 days (FIG. 18B). Tumor volumes were measured twice a week for 13 weeks (FIG. 18A). No further therapies were given to the subjects 28 days post tumoral implantation (dpi)."}},
  "data": [
    {"smiles": "COc1cccc2c1C(=O)c1c(O)c3c(c(O)c1C2=O)C[C@@](O)(C(=O)CO)C[C@@H]3O[C@H]1C[C@H](N)[C@H](O)[C@H](C)O1", "note": "[doxorubicin]", "values": [
      {"measurement": "reticulocyte counts", "setting": "[1]", "value": "dramatic decrease in reticulocytes"},
      {"measurement": "IC50", "setting": "[2]", "value": 18, "unit": "nM"},
      {"measurement": "body weight lost", "setting": "[3]", "value": "about 20%"},
      {"measurement": "median tumor size", "setting": "[4]; 2 weeks after the last treatment dose (40 dpi), HMT near tumor", "value": "undetectable"},
      {"measurement": "mice with a mild response", "setting": "[4]; 40 dpi, HMT near tumor", "value": "1/5"},
      {"measurement": "median tumor size", "setting": "[4]; 30 days after the last treatment dose (60 dpi), HMT near tumor", "value": "greater than 2000 mm^3"},
      {"measurement": "mice that reached the study endpoint of 2000 mm3", "setting": "[4]; by 88 dpi", "value": "5/5"}
    ]}
  ]
}
